Experimental data from ChEMBL document CHEMBL1201862, “PubChem BioAssay data set” (2004).
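Method: 48-hour compound exposure of cells in 96-well plates, five concentrations, linear interpolation of endpoints. The concentration for 50% growth inhibition is given as GI50.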 The source made the active and inactive calls. Rule as the data show it: active = GI50 up to about 1.1 µM and inactive = higher.

Columns and labels:
Assay in all cases: NCI anticancer screen, dose series, 48 h
BT-549 = system: BT-549
SN12C = system: SN12C
U-251 = system: U-251
OVCAR-5 = system: OVCAR-5
HT-29 = system: HT-29
CAKI-1 = system: CAKI-1
EKVX = system: EKVX
HCT-116 = system: HCT-116
CCRF-CEM = system: CCRF-CEM
OVCAR-8 = system: OVCAR-8
PC-3 = system: PC-3
A498 = system: A498
UACC-257 = system: UACC-257
NCI-H23 = system: NCI-H23
OVCAR-3 = system: OVCAR-3
SK-MEL-28 = system: SK-MEL-28
IGROV-1 = system: IGROV-1
NCI-H460 = system: NCI-H460
MDA-MB-435 = system: MDA-MB-435
SK-OV-3 = system: SK-OV-3

Measured: GI50

Cc1cc(C)c2c(c1)C/C(=C\c1ccccc1C(=O)O)C2=O
inactive: BT-549 29.9 µM | SN12C > 100 µM | U-251 7.46 µM | OVCAR-5 > 100 µM | HT-29 > 100 µM | CAKI-1 > 100 µM | EKVX 82.6 µM | HCT-116 76.6 µM | CCRF-CEM 34.6 µM | OVCAR-8 57 µM | PC-3 > 100 µM | A498 51.5 µM | UACC-257 > 100 µM | NCI-H23 > 100 µM | OVCAR-3 23.7 µM | SK-MEL-28 > 100 µM | IGROV-1 > 100 µM | NCI-H460 11.7 µM

C[C@H](O)C1CC(Cn2nnc3c(N)ncnc32)C1(C)C (some centres not stated)
inactive: SN12C > 100 µM | U-251 > 100 µM | OVCAR-5 > 100 µM | MDA-MB-435 > 100 µM | CAKI-1 > 100 µM | EKVX > 100 µM | HCT-116 > 100 µM | CCRF-CEM > 100 µM | PC-3 > 100 µM | A498 > 100 µM | SK-OV-3 > 100 µM | UACC-257 > 100 µM | OVCAR-3 > 100 µM | SK-MEL-28 > 100 µM

COc1cc(/C=N\NC(=O)C[N+](C)(C)C)cc(OC)c1OC
inactive: BT-549 > 10 µM | SN12C > 10 µM | U-251 > 10 µM | OVCAR-5 > 10 µM | HT-29 > 10 µM | MDA-MB-435 > 10 µM | CAKI-1 > 10 µM | HCT-116 > 10 µM | CCRF-CEM > 10 µM | OVCAR-8 > 10 µM | PC-3 > 10 µM | SK-OV-3 > 10 µM | UACC-257 > 10 µM | NCI-H23 > 10 µM | OVCAR-3 > 10 µM | SK-MEL-28 > 10 µM | IGROV-1 > 10 µM

N#CCCN(CCC#N)c1ccc(/C=C(/NC(=O)c2cc([N+](=O)[O-])ccc2Cl)C(=O)N=[N+]=[N-])cc1
inactive: SN12C > 100 µM | U-251 > 100 µM | OVCAR-5 > 100 µM | HT-29 > 100 µM | CAKI-1 > 100 µM | EKVX > 100 µM | HCT-116 > 100 µM | CCRF-CEM > 100 µM | OVCAR-8 > 100 µM | A498 > 100 µM | SK-OV-3 > 100 µM | UACC-257 > 100 µM | NCI-H23 > 100 µM | OVCAR-3 > 100 µM | SK-MEL-28 > 100 µM | IGROV-1 > 100 µM | NCI-H460 > 100 µM

O=C1CC2C=CC(O)C(C1)C2 (configuration not stated)
inactive: SN12C > 100 µM | U-251 > 100 µM | OVCAR-5 > 100 µM | HT-29 > 100 µM | MDA-MB-435 > 100 µM | HCT-116 > 100 µM | CCRF-CEM > 100 µM | OVCAR-8 > 100 µM | PC-3 > 100 µM | A498 > 100 µM | SK-OV-3 > 100 µM | UACC-257 > 100 µM | NCI-H23 > 100 µM | OVCAR-3 > 100 µM | SK-MEL-28 > 100 µM | IGROV-1 > 100 µM | NCI-H460 > 100 µM

COc1cc(/C=C(\C#N)C(=O)c2ccccc2)ccc1O
inactive: SN12C > 100 µM | U-251 > 100 µM | OVCAR-5 > 100 µM | HT-29 > 100 µM | CAKI-1 > 100 µM | EKVX > 100 µM | HCT-116 > 100 µM | CCRF-CEM 82.8 µM | OVCAR-8 > 100 µM | A498 > 100 µM | SK-OV-3 > 100 µM | UACC-257 > 100 µM | NCI-H23 > 100 µM | OVCAR-3 34.4 µM | SK-MEL-28 > 100 µM | IGROV-1 > 100 µM | NCI-H460 > 100 µM

O=C1C2C(C(=O)N1c1ccccc1)C1(Br)c3ccccc3C2(Br)C2C(=O)N(c3ccccc3)C(=O)C21 (configuration not stated)
inactive: SN12C > 31.6 µM | U-251 > 31.6 µM | OVCAR-5 > 31.6 µM | HT-29 27.8 µM | CAKI-1 64 µM | EKVX > 31.6 µM | HCT-116 28.3 µM | CCRF-CEM 26.6 µM | OVCAR-8 > 100 µM | A498 21.9 µM | SK-OV-3 > 100 µM | UACC-257 > 31.6 µM | NCI-H23 17.6 µM | OVCAR-3 > 31.6 µM | SK-MEL-28 > 31.6 µM | IGROV-1 > 31.6 µM | NCI-H460 > 31.6 µM

O=C(Nc1cccc([N+](=O)[O-])c1)/C(=N\NC(=O)c1ccncc1)c1nc2ccc([N+](=O)[O-])cc2nc1O
inactive: SN12C > 100 µM | U-251 71.3 µM | OVCAR-5 77.3 µM | HT-29 74.1 µM | CAKI-1 38.6 µM | EKVX 38 µM | HCT-116 84.3 µM | CCRF-CEM 14.7 µM | OVCAR-8 50.1 µM | A498 > 100 µM | SK-OV-3 > 100 µM | UACC-257 46.7 µM | NCI-H23 68.1 µM | OVCAR-3 > 100 µM | SK-MEL-28 29.2 µM | IGROV-1 > 100 µM | NCI-H460 54 µM

COC(=O)C1CC/C(=N/C2c3ccccc3-c3ccccc32)N1 (configuration not stated)
inactive: SN12C > 100 µM | U-251 > 100 µM | OVCAR-5 > 100 µM | HT-29 > 100 µM | CAKI-1 > 100 µM | EKVX > 100 µM | HCT-116 > 100 µM | CCRF-CEM 58.6 µM | OVCAR-8 > 100 µM | A498 > 100 µM | SK-OV-3 > 100 µM | UACC-257 > 100 µM | NCI-H23 > 100 µM | OVCAR-3 74.8 µM | SK-MEL-28 > 100 µM | IGROV-1 > 100 µM | NCI-H460 32.7 µM

C[C@H]1OC(=O)[C@@H]2N=NN(Cc3ccccc3)[C@H]12
inactive: SN12C > 100 µM | U-251 > 100 µM | OVCAR-5 > 100 µM | HT-29 > 100 µM | MDA-MB-435 > 100 µM | CAKI-1 > 100 µM | HCT-116 > 100 µM | OVCAR-8 > 100 µM | PC-3 > 100 µM | A498 > 100 µM | SK-OV-3 > 100 µM | NCI-H23 > 100 µM | OVCAR-3 > 100 µM | SK-MEL-28 > 100 µM | NCI-H460 > 100 µM

CN1CCN(C(=S)N(C(=O)c2cccs2)C2CCCCC2)CC1
inactive: BT-549 > 100 µM | SN12C > 100 µM | U-251 > 100 µM | OVCAR-5 > 100 µM | HT-29 > 100 µM | MDA-MB-435 > 100 µM | CCRF-CEM > 10 µM | OVCAR-8 > 100 µM | UACC-257 > 100 µM | NCI-H23 > 100 µM | OVCAR-3 > 100 µM | SK-MEL-28 > 100 µM | IGROV-1 > 100 µM | NCI-H460 > 100 µM

COP(=O)(Cc1ccc(/C=C/C#N)o1)OC
inactive: U-251 > 100 µM | HT-29 > 100 µM | MDA-MB-435 > 100 µM | EKVX > 100 µM | HCT-116 > 100 µM | CCRF-CEM > 100 µM | OVCAR-8 > 100 µM | A498 > 100 µM | SK-OV-3 > 100 µM | NCI-H23 > 100 µM | OVCAR-3 > 100 µM | SK-MEL-28 > 100 µM | IGROV-1 > 100 µM | NCI-H460 > 100 µM

N#CC(C(=O)/C(=N\NC(N)=O)C(C#N)c1ccccc1)c1ccccc1 (configuration not stated)
inactive: SN12C > 100 µM | U-251 > 100 µM | OVCAR-5 > 100 µM | HT-29 > 100 µM | CAKI-1 > 100 µM | EKVX > 100 µM | HCT-116 > 100 µM | CCRF-CEM > 100 µM | OVCAR-8 > 100 µM | A498 > 100 µM | SK-OV-3 > 100 µM | UACC-257 > 100 µM | NCI-H23 > 100 µM | OVCAR-3 > 100 µM | SK-MEL-28 > 100 µM | IGROV-1 > 100 µM | NCI-H460 > 100 µM

CC1=C/C(=N\OCC(=O)O)CC(c2ccc(C(C)C)cc2)C1 (configuration not stated)
inactive: SN12C 60.1 µM | U-251 63.8 µM | OVCAR-5 > 100 µM | HT-29 16.6 µM | MDA-MB-435 36.8 µM | CAKI-1 > 100 µM | EKVX > 100 µM | HCT-116 45.6 µM | CCRF-CEM 34.4 µM | OVCAR-8 27.9 µM | PC-3 38.5 µM | SK-OV-3 > 100 µM | UACC-257 43 µM | IGROV-1 > 100 µM | NCI-H460 42.2 µM

CSc1ccc2c(cc1=O)C(NC(=O)c1ccccc1)CCc1cc(O)c(O)c(O)c1-2 (configuration not stated)
inactive: SN12C 18.4 µM | U-251 6.37 µM | OVCAR-5 > 100 µM | HT-29 32.3 µM | CAKI-1 27.6 µM | EKVX 6.22 µM | HCT-116 18.5 µM | CCRF-CEM 6.73 µM | OVCAR-8 37.4 µM | A498 22.3 µM | SK-OV-3 5.71 µM | UACC-257 15.3 µM | NCI-H23 4.37 µM | OVCAR-3 2.51 µM | SK-MEL-28 24.5 µM | IGROV-1 22 µM | NCI-H460 19 µM

Cn1cnnc1Sc1c([N+](=O)[O-])ncn1C
inactive: SN12C > 100 µM | U-251 > 100 µM | OVCAR-5 > 100 µM | HT-29 > 100 µM | CAKI-1 > 100 µM | EKVX > 100 µM | HCT-116 > 100 µM | CCRF-CEM 29.4 µM | OVCAR-8 > 100 µM | A498 > 100 µM | SK-OV-3 > 100 µM | UACC-257 > 100 µM | NCI-H23 84.7 µM | OVCAR-3 > 100 µM | SK-MEL-28 36.9 µM | IGROV-1 > 100 µM | NCI-H460 > 100 µM

CC1=C2C(=O)C(C)(C)C=C2C(=O)[C@](C)(O)C12CC2 [DEHYDROILLUDIN M]
active: SN12C > 1 µM | U-251 0.484 µM | OVCAR-5 > 1 µM | HT-29 0.248 µM | CAKI-1 > 1 µM | EKVX > 1 µM | HCT-116 0.265 µM | CCRF-CEM > 1 µM | OVCAR-8 0.56 µM | A498 > 1 µM | SK-OV-3 > 1 µM | UACC-257 0.745 µM | NCI-H23 0.499 µM | OVCAR-3 > 1 µM | SK-MEL-28 > 1 µM | IGROV-1 > 1 µM | NCI-H460 0.23 µM
